± gives the standard deviation of the averaged measurements.
Tests used:
Test in all cases: level (log10 ratio to DMSO vehicle control); higher = higher biomarker level / cell amount than vehicle control
[1] = compound: C=C(C)C(=O)OCCC(F)(F)C(F)(F)C(F)(F)C(F)(F)C(F)(F)C(F)(F)F [6:2 Fluorotelomer methacrylate]; settings: in DMSO
Experimental: (§1)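 BioMAP Diversity Plus panel of 12 human primary cell co-culture systems (3C, 4H, LPS, SAg, BT, BF4T, BE3C, CASM3C, HDF3CGF, KF3CT, MyoF, Mphg). Compounds were added 1 h before stimulation and left for 24 h (MyoF 48 h; BT 72 h for soluble read-outs or 6 d for IgG). Biomarkers were read by ELISA, cytotoxicity by SRB, PBMC viability and proliferation by Alamar Blue. Each well value was divided by the mean of 8 DMSO control wells on the same plate and log10 transformed; duplicate blinded samples were tested at 4 concentrations.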

[2] = compound: C=CC(=O)OCC(F)(F)C(F)(F)C(F)(F)COC(=O)C=C [1H,1H,5H,5H-Perfluoro-1,5-pentanediol diacrylate]; settings: 6700 nM; in DMSO
Experimental: as §1

[3] = compound: FC(F)(F)C(F)(F)C(F)(F)C(F)(F)C(F)(F)C(F)(F)CC1CO1 [3-(Perfluorohexyl)-1,2-epoxypropane]; settings: in DMSO
Experimental: as §1

[4] = compound: FC(F)(F)C(F)(F)C(F)(F)CC1CO1 [1H,1H-Heptafluorobutyl epoxide]; settings: in DMSO
Experimental: as §1

[5] = compound: NC(=O)C(F)(F)C(F)(F)C(F)(F)C(F)F; settings: in DMSO
Experimental: as §1

[6] = compound: O=S(=O)(O)C(F)(F)C(F)(F)C(F)(F)C(F)(F)C(F)(F)C(F)(F)C(F)(F)C(F)(F)C(F)(F)C(F)(F)F [Sodium perfluorodecanesulfonate]; settings: in DMSO
Experimental: as §1

[7] = compound: O=S(=O)(O)CCC(F)(F)C(F)(F)C(F)(F)C(F)(F)C(F)(F)C(F)(F)F [6:2 Fluorotelomer sulfonic acid]; settings: in DMSO
Experimental: as §1

| Test System | level (log10) ([1]; 6700 nM) | level (log10) ([1]; 20000 nM) | level (log10) ([1]; 60000 nM) | level (log10) [2] | level (log10) ([3]; 6700 nM) | level (log10) ([3]; 20000 nM) | level (log10) ([3]; 60000 nM) | level (log10) ([4]; 6700 nM) | level (log10) ([4]; 20000 nM) | level (log10) ([4]; 60000 nM) | level (log10) ([5]; 6700 nM) | level (log10) ([5]; 20000 nM) | level (log10) ([5]; 60000 nM) | level (log10) ([6]; 1500 nM) | level (log10) ([6]; 4400 nM) | level (log10) ([6]; 13000 nM) | level (log10) ([6]; 40000 nM) | level (log10) ([7]; 6700 nM) | level (log10) ([7]; 20000 nM) | level (log10) ([7]; 60000 nM) |
| --- | --- | --- | --- | --- | --- | --- | --- | --- | --- | --- | --- | --- | --- | --- | --- | --- | --- | --- | --- | --- |
| MyoF:Decorin | -0.0045 ± 0.033 | 0.0325 ± 0.028 | 0.015 ± 0.0042 | -0.0325 ± 0.0064 | 0.001 ± 0.03 | 0.003 | 0.0265 ± 0.035 | -0.01 ± 0.014 | -0.009 ± 0.028 | 0.009 ± 0.035 | 0.012 ± 0.0085 | -0.0035 ± 0.03 | -0.009 ± 0.0085 | -0.0285 ± 0.016 | 0.013 ± 0.0099 | -0.0025 ± 0.016 | 0.034 | 0.0105 ± 0.0035 | 0.0015 ± 0.00071 | 0.0435 ± 0.0021 |
| CASM3C:CXCL9/MIG | 0.011 ± 0.016 | 0.0255 ± 0.012 | 0.041 ± 0.0099 | -0.229 ± 0.011 | -0.014 ± 0.025 | -0.007 ± 0.016 | 0.0005 ± 0.026 | -0.01 ± 0.011 | -0.0145 ± 0.023 | 0.004 ± 0.013 | -0.0075 ± 0.021 | -0.0055 ± 0.0035 | 0.0005 ± 0.0078 | 0.0195 ± 0.036 | -0.0105 ± 0.011 | 0.0285 ± 0.043 | 0.0875 ± 0.043 | -0.0445 ± 0.0078 | -0.0315 ± 0.0035 | -0.015 ± 0.045 |
| BE3C:uPA | 0.0055 ± 0.0064 | 0.0085 ± 0.0092 | 0.019 ± 0.021 | -0.015 ± 0.0028 | -0.005 ± 0.014 | -0.006 ± 0.0042 | 0.007 ± 0.02 | -0.022 ± 0.014 | -0.004 ± 0.0042 | -0.0065 ± 0.00071 | -0.01 ± 0.0057 | -0.013 ± 0.0085 | -0.0045 ± 0.013 | -0.027 ± 0.0057 | -0.032 ± 0.034 | -0.019 ± 0.017 | -0.051 ± 0.027 | -0.008 ± 0.0099 | -0.005 ± 0.0028 | 0.01 ± 0.0057 |
| HDF3CGF:CCL2/MCP-1 | -0.0445 ± 0.0092 | -0.0295 ± 0.005 | -0.048 ± 0.0028 | -1.14 ± 0.03 | -0.0165 ± 0.0021 | -0.0045 ± 0.019 | 0.0055 ± 0.03 | -0.0325 ± 0.032 | -0.034 ± 0.02 | -0.02 ± 0.0099 | -0.017 ± 0.054 | -0.004 ± 0.04 | 0.0095 ± 0.028 | -0.0105 ± 0.05 | -0.018 ± 0.035 | 0.0415 ± 0.025 | 0.112 ± 0.0099 | 0.0075 ± 0.019 | 0.0085 ± 0.021 | 0.008 ± 0.014 |
| HDF3CGF:TIMP-1 | -0.049 ± 0.028 | -0.0115 ± 0.0078 | -0.0055 ± 0.0035 | -0.245 ± 0.011 | 0.0085 ± 0.025 | 0.0265 ± 0.025 | 0.0305 ± 0.012 | -0.0015 ± 0.067 | 0.015 ± 0.068 | -0.0025 ± 0.071 | -0.0005 ± 0.0064 | -0.0095 ± 0.043 | 0.0045 ± 0.039 | -0.0355 ± 0.04 | 0.0065 ± 0.0035 | 0.0265 ± 0.042 | 0.156 ± 0.016 | 0.0225 ± 0.08 | -0.0045 ± 0.076 | 0.0175 ± 0.13 |
| HDF3CGF:CXCL11/I-TAC | -0.022 ± 0.021 | -0.014 ± 0.0014 | -0.018 ± 0.013 | -0.41 ± 0.045 | 0.01 ± 0.016 | 0.015 ± 0.0028 | -0.003 ± 0.027 | -0.0165 ± 0.063 | -0.016 ± 0.093 | -0.0255 ± 0.11 | -0.0035 ± 0.016 | -0.002 ± 0.013 | -0.002 ± 0.027 | -0.0205 ± 0.029 | -0.0225 ± 0.0092 | 0.0785 ± 0.013 | 0.092 ± 0.0042 | -0.0445 ± 0.1 | -0.0605 ± 0.088 | -0.0885 ± 0.091 |
| lMphg:IL-1alpha | -0.0445 ± 0.076 | -0.03 ± 0.02 | -0.0305 ± 0.069 | 0.045 ± 0.024 | -0.0115 ± 0.046 | -0.013 ± 0.021 | -0.0015 ± 0.011 | -0.012 ± 0.0071 | -0.025 ± 0.0071 | -0.002 ± 0.028 | -0.0425 ± 0.023 | -0.0465 ± 0.00071 | 0.0365 ± 0.047 | 0.0345 ± 0.021 | -0.002 ± 0.028 | 0.032 ± 0.013 | 0.0505 ± 0.03 | 0.0395 ± 0.05 | 0.0235 ± 0.035 | 0.0215 ± 0.039 |
| KF3CT:CCL2/MCP-1 | -0.051 ± 0.021 | -0.0475 ± 0.005 | -0.0235 ± 0.005 | -0.0955 ± 0.018 | 0.0005 ± 0.0092 | -0.0125 ± 0.03 | 0.0075 ± 0.053 | -0.031 ± 0.04 | -0.0685 ± 0.023 | -0.026 ± 0.042 | -0.0055 ± 0.018 | -0.0245 ± 0.0078 | 0.0205 ± 0.026 | 0.037 ± 0.0099 | -0.0155 ± 0.042 | -0.0485 ± 0.029 | -0.023 ± 0.038 | 0.0125 ± 0.00071 | 0.0035 ± 0.013 | -0.0145 ± 0.043 |
| HDF3CGF:PAI-I | -0.0695 ± 0.083 | -0.057 ± 0.064 | -0.0415 ± 0.057 | -0.85 ± 0.033 | -0.0375 ± 0.019 | -0.022 ± 0.033 | -0.0115 ± 0.05 | -0.0135 ± 0.0035 | -0.0175 ± 0.0064 | 0.009 ± 0.025 | -0.012 ± 0.011 | -0.016 ± 0.0099 | 0 ± 0.038 | 0.0815 ± 0.042 | 0.159 ± 0.0028 | 0.129 ± 0.041 | 0.147 ± 0.038 | 0.005 ± 0.0042 | -0.0015 ± 0.0035 | -0.01 ± 0.011 |
| 3C:CD141/Thrombomodulin | -0.0155 ± 0.042 | -0.014 ± 0.048 | -0.072 ± 0.014 | -0.124 ± 0.013 | -0.0025 ± 0.028 | -0.0095 ± 0.00071 | -0.0075 ± 0.0035 | 0.0125 ± 0.053 | -0.034 ± 0.04 | -0.0575 ± 0.08 | -0.0285 ± 0.074 | 0 ± 0.03 | -0.0075 ± 0.026 | -0.015 ± 0.031 | -0.052 ± 0.013 | -0.0325 ± 0.019 | -0.0565 ± 0.0035 | -0.0065 ± 0.05 | -0.0475 ± 0.019 | -0.0415 ± 0.033 |
| HDF3CGF:CXCL10/IP-10 | -0.0075 ± 0.016 | -0.019 ± 0.021 | -0.0225 ± 0.026 | -0.821 ± 0.0057 | 0.005 ± 0.031 | 0.012 ± 0.034 | -0.0095 ± 0.037 | -0.0275 ± 0.0078 | -0.0285 ± 0.053 | -0.054 ± 0.054 | -0.001 ± 0.0014 | -0.0065 ± 0.0021 | 0.002 ± 0.011 | -0.001 ± 0.027 | -0.065 ± 0.0042 | -0.025 ± 0.02 | 0.012 | -0.0075 ± 0.018 | -0.046 ± 0.021 | -0.0325 ± 0.042 |
| 4H:SRB | -0.0005 ± 0.0035 | 0.0005 ± 0.016 | 0.008 ± 0.014 | -0.0105 ± 0.019 | 0.007 ± 0.0028 | -0.003 ± 0.0057 | 0.015 ± 0.023 | 0.008 ± 0.023 | 0.007 ± 0.0057 | -0.02 ± 0.0071 | -0.0195 ± 0.0078 | -0.0055 ± 0.005 | -0.017 ± 0.021 | -0.003 ± 0.0042 | -0.004 ± 0.0071 | -0.017 ± 0.0014 | -0.023 ± 0.0099 | -0.0015 ± 0.0021 | 0.0035 ± 0.018 | -0.004 ± 0.027 |
| BE3C:tPA | -0.0525 ± 0.036 | -0.053 ± 0.018 | -0.056 ± 0.013 | -0.0565 ± 0.033 | 0.0085 ± 0.019 | -0.014 ± 0.014 | 0.0325 ± 0.018 | -0.0115 ± 0.06 | -0.0245 ± 0.03 | -0.0375 ± 0.026 | -0.008 ± 0.0028 | -0.0275 ± 0.016 | -0.0235 ± 0.0021 | 0.12 ± 0.017 | 0.186 ± 0.0028 | 0.191 ± 0.013 | -0.103 ± 0.0057 | -0.0025 ± 0.016 | 0.029 ± 0.02 | 0.05 ± 0.025 |
| CASM3C:CD141/Thrombomodulin | 0.016 ± 0.071 | 0.021 ± 0.067 | 0.03 ± 0.081 | 0.081 ± 0.0042 | 0.011 ± 0.011 | 0.005 ± 0.013 | 0.0225 ± 0.029 | -0.0145 ± 0.047 | -0.0265 ± 0.018 | 0.001 ± 0.035 | -0.008 ± 0.0042 | 0.0085 ± 0.025 | 0.0085 ± 0.0092 | 0.0625 ± 0.015 | 0.034 ± 0.0028 | 0.03 ± 0.038 | 0.166 ± 0.0092 | -0.015 ± 0.037 | -0.0175 ± 0.063 | -0.033 ± 0.021 |

— the supplement of paper PMC10331698
